According to patent US20110207796A1, “ALPHA-SYNUCLEIN KINASE” (Elan Pharma International Limited, priority 2008, published 2011):
Where two headings read alike, the source gives them in different places.

Tests used:
brain p-synuclein = assay: synuclein phosphorylation in brains of FVB mice treated with kainic acid (immunohistochemistry, ELISA); type: in vivo, mouse; conditions: immunohistochemistry and ELISA
From the text: This example describes up regulation of phosphorylated α-synuclein (p-synuclein) in wildtype mice after kainic acid administration. Several articles have reported that excitotoxicity can result in an upregulation of polo-like kinases. […] Thus the kainic acid model provides better understanding the involvement of the PLK2 p-synuclein pathway in neurodegeneration and may be used in screening assays of the invention.

panel of 260 kinases = assay: screen against a panel of 260 kinases at 10 uM; type: biochemical
[1] = test system: synuclein phosphorylation (serine-129); assay: inhibition of synuclein phosphorylation across the cellular paradigms (primary neuronal cultures and 293 cells); type: cell-based, mouse, rat and human; conditions: Homo sapiens, HEK293; most EC50 values, all cellular paradigms; read-out: EC50 inhibition of synuclein phosphorylation, cellular paradigms
[2] = test system: endogenous kinase (synuclein phosphorylation); assay: HEK-293 cells overexpressing synuclein with empty vector, inhibition of synuclein phosphorylation; type: cell-based, human; conditions: Homo sapiens
Protocol: All vectors had the sequence coding for the protein of interest. Transfection was accomplished using Lipofectamine 2000 (Invitrogen, Carlsbad, Calif.) with 0.08 μg vector. Cells were washed and harvested 48 hours post-transfection. A Micro BCA (Pierce) total protein assay and total synuclein and phospho-synuclein ELISAs were performed on each plate of treated cells.

[3] = test system: synuclein phosphorylation by endogenous kinase; assay: kinase inhibitor treatment of mouse cortical cultures (MCC), total and phospho-synuclein ELISA; type: cell-based
Protocol: Mouse cortical cultures from fetal (i) Swiss-Webster, (ii) C56BL/6 WT and (iii) C56BL/6 E46K-Synuclein Trangenic mice were prepared and maintained in B27/DMEM/1% Penicillin-Streptomycin at 37° C./10% CO2 for three to fourteen days and then treated with kinase inhibitors.
Cultures were exposed to inhibitors for two hours in B27/DMEM/1% Penicillin-Streptomycin. Cells were immediately washed in 100 μL of PBS plus Mg^2+ and Ca^2+, and harvested in ice-cold CEB minus EGTA plus protease inhibitors, frozen on dry ice and stored at −80° C. until processed. A Micro BCA (Pierce) total protein assay, and total synuclein and phospho-synuclein ELISAs were performed on each plate of treated cells using standard methods.

SMILES	p-synuclein levels in brain (brain p-synuclein)	inhibition in panel of 260 kinases (panel of 260 kinases)	EC50 [1]	EC50 ([2]; HEK293, read-out: EC50, Endogenous Kinase (293))	EC50 ([2]; HEK293, read-out: EC50 Based on the Percent Inhibition of Synuclein Phosphorylation, Synuclein + Vector)	EC50 ([2]; HEK293, read-out: EC50 synuclein phosphorylation, endogenous kinase)	EC50 ([3]; Mus musculus, read-out: EC50, E46K-Syn TG MCC)	EC50 ([3]; Swiss-Webster mouse cortical cultures, read-out: EC50, Swiss-Webster MCC)	EC50 ([3]; WT mouse cortical cultures, read-out: EC50, WT-MCC)
C=C(C)[C@H]1CN[C@H](C(=O)O)[C@H]1CC(=O)O [kainic acid]	Increased levels								
CC[C@@H]1C(=O)N(C)c2cnc(Nc3ccc(C(=O)NC4CCN(C)CC4)cc3OC)nc2N1C1CCCC1 [BI 2536, 4-[[(7r)-8-cyclopentyl-7-ethyl-5,6,7,8-tetrahydro-5-methyl-6-oxo-2-pteridinyl]amino]-3-methoxy-n-(1-methyl-4-piperidinyl)-benzamide]		very potent in inhibiting PLK2 and PLK3	≤ 100 nM	54 nM	99 nM	99 nM	< 100 nM	92 nM	< 100 nM
